Data on 13 compounds can be found in patent US8530493B2, “Indolopyridines as Eg5 kinesin modulators” (4SC AG, priority 2006, dated 2013).

Where only a bound is given, the exact number is not on record here.

The subject of data set [1] is RKO p27 uninduced (proliferating) colon adenocarcinoma cells. The data set can be described thus: Alamar Blue cell viability assay, RKO p27 uninduced (proliferating). Conditions: Homo sapiens, RKOp27, Table B1, anti-proliferative/cytotoxic activity, 72 hours, read-out: −log EC50 RKO p27 uninduced (proliferating) (converted). The format is cell-based. Put shortly:
(§1)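 RKO p21 or p27 subclones grown without Ponasterone A, i.e. proliferating, exposed 24 h after seeding to semi-log compound dilutions in DMEM/10% FCS (1% DMSO controls) for 72 h at 37° C. Alamar Blue fluorescence (544/590 nm) read relative to untreated cells; EC50 from dose-response curves, given as −log EC50 (mol/l).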

For data set [2], the system named is RKO p27 induced (arrested) colon adenocarcinoma cells. The experiment in a line: Alamar Blue cell viability assay, RKO p27 induced by Ponasterone A (arrested). The format is cell-based. Conditions: Homo sapiens, RKOp27, Table B1, cells arrested by Ponasterone A-induced p27Kip1, 72 hours, read-out: −log EC50 RKO p27 induced (arrested) (converted). In a few lines: (§2)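 RKOp21 or RKOp27 subclones in DMEM/10% FCS with 10 μM Ponasterone A to induce p21/p27 arrest, seeded 24 h before compound; triplicate 72 h exposure at 37 °C. Alamar Blue fluorescence (544/590 nm) as % of untreated (1% DMSO) cells; EC50 from dose-response curves, reported as −log EC50 (mol/l).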
(Resazurin is reduced to fluorescent resorufin, in cell work by metabolically active cells.)

Data set [3] deals with RKO p27 or p21 induced (arrested) colon adenocarcinoma cells. The data set can be described thus: Alamar Blue cell viability assay, RKO p27 or p21 induced (arrested). The format is cell-based. Conditions: Homo sapiens, RKOp27, Table B2, cells arrested by Ponasterone A, 72 hours, read-out: −log EC50 RKO p27 or p21 induced (arrested) (converted). Put shortly:
as §2

Data set [4] relates to RKO p27 or p21 uninduced (proliferating) colon adenocarcinoma cells. The data set can be described thus: Alamar Blue cell viability assay, RKO p27 or p21 uninduced (proliferating). The format is cell-based. Conditions: Homo sapiens, RKOp27, Table B2, anti-proliferative/cytotoxic activity, 72 hours, read-out: −log EC50 RKO p27 or p21 uninduced (proliferating) (converted). In a few lines: as §1

The term EC50 denotes the concentration giving half of the maximal effect. A word on the melting point: it is the temperature, or range, at which the solid turns liquid. In the case of `CN(C)CCN1C(=O)N2[C@H](c3cccc(O)c3)c3[nH]c4ccc(Br)cc4c3C[C@@]2(C)C1=O` (racemic) [Example 8, (3aSR,10RS)-6-Bromo-2-(2-dimethylamino-ethyl)-10-(3-hydroxy-phenyl)-3a-methyl-3a,4,9,10-tetrahydro-2,9,10a-triaza-cyclopenta[b]fluorene-1,3-dione], the melting point lay within 286 to 288 °C. In addition, in data set [1], the concentration giving a half-maximal response (EC50) was no more than 39.8 nM. In data set [2], the EC50 is no less than 3160 nM.
In the case of `COc1ccc2[nH]c3c(c2c1)C[C@@]1(C)C(=O)N(CCN2CCN(C)CC2)C(=O)N1[C@@H]3c1cccc(O)c1` (racemic) [Example 12, (3aSR,10RS)-10-(3-Hydroxy-phenyl)-6-methoxy-3a-methyl-2-[2-(4-methyl-piperazin-1-yl)ethyl]-3a,4,9,10-tetrahydro-2,9,10a-triaza-cyclopenta[b]fluorene-1,3-dione], the melting point lay in the range of 224 to 227 °C. The EC50 in data set [1] is 39.8 to 251 nM. The EC50 in data set [2] is no less than 3160 nM.
The corresponding values for `COc1ccc2[nH]c3c(c2c1)C[C@@]1(C)C(=O)N(CCN2CCCC2)C(=O)N1[C@@H]3c1cccc(O)c1` (racemic) [Example 11, (3aSR,10RS)-10-(3-Hydroxy-phenyl)-6-methoxy-3a-methyl-2-(2-pyrrolidin-1-yl-ethyl)-3a,4,9,10-tetrahydro-2,9,10a-triaza-cyclopenta[b]fluorene-1,3-dione] are 252 to 255 °C, no more than 39.8 nM and no less than 3160 nM.
Consider `COc1ccc2[nH]c3c(c2c1)C[C@@]1(C)C(=O)N(CCN2CCOCC2)C(=O)N1[C@@H]3c1cccc(O)c1` (racemic) [Example 10, (3aSR,10RS)-10-(3-Hydroxy-phenyl)-6-methoxy-3a-methyl-2-(2-morpholin-4-yl-ethyl)-3a,4,9,10-tetrahydro-2,9,10a-triaza-cyclopenta[b]fluorene-1,3-dione], for which the melting point lay in the range of 260 to 263 °C. The EC50 in data set [1] was no more than 39.8 nM. For the same compound, the concentration for a half-maximal effect (EC50) in data set [2] is no less than 3160 nM.
`COc1ccc2[nH]c3c(c2c1)C[C@@]1(C)C(=O)N(CCCN(C)C)C(=O)N1[C@@H]3c1cccc(O)c1` (racemic) [Example 15, (3aSR,10RS)-2-(3-Dimethylamino-propyl)-10-(3-hydroxy-phenyl)-6-methoxy-3a-methyl-3a,4,9,10-tetrahydro-2,9,10a-triaza-cyclopenta[b]fluorene-1,3-dione] registered a melting point of 228 to 231 °C. Moreover, the EC50 in data set [1] was no more than 39.8 nM. The 50% effective concentration (EC50) in data set [2] was no less than 3160 nM.
Compound `COc1ccc2[nH]c3c(c2c1)C[C@@]1(C)C(=O)N(CCBr)C(=O)N1[C@@H]3c1cccc(O)c1` (racemic) [Example 24, (3aSR,10RS)-2-(2-Bromo-ethyl)-10-(3-hydroxy-phenyl)-6-methoxy-3a-methyl-3a,4,9,10-tetrahydro-2,9,10a-triaza-cyclopenta[b]fluorene-1,3-dione] registered a melting point of 299 to 302 °C. The EC50 in data set [1] was 39.8 to 251 nM. In addition, in data set [2], the concentration for a half-maximal effect (EC50) is no less than 3160 nM.
`C[C@@]12Cc3c([nH]c4ccc(Cl)cc34)[C@@H](c3cccc(O)c3)N1C(=O)N(CCBr)C2=O` (racemic) gave a melting point of 262 to 264 °C.
In turn, `CN(C)CCN1C(=O)N2[C@H](c3cccc(O)c3)c3[nH]c4ccc(Cl)cc4c3C[C@@]2(C)C1=O` (racemic) [Example 9, (3aSR,10RS)-6-Chloro-2-(2-dimethylamino-ethyl)-10-(3-hydroxy-phenyl)-3a-methyl-3a,4,9,10-tetrahydro-2,9,10a-triaza-cyclopenta[b]fluorene-1,3-dione] returned a melting point of 283 to 286 °C. In data set [1], the 50% effective concentration (EC50) was no more than 39.8 nM. The EC50 in data set [2] was no less than 3160 nM.
Turning to `COc1ccc2[nH]c3c(c2c1)C[C@@]1(C)C(=O)N(CCn2ccnc2)C(=O)N1[C@@H]3c1cccc(O)c1` (racemic) [Example 13, (3aSR,10RS)-10-(3-Hydroxy-phenyl)-2-(2-imidazol-1-yl-ethyl)-6-methoxy-3a-methyl-3a,4,9,10-tetrahydro-2,9,10a-triaza-cyclopenta[b]fluorene-1,3-dione], the melting point lay in the range of 321 to 324 °C. Also, the concentration giving a half-maximal response (EC50) in data set [1] is 39.8 to 251 nM. Moreover, the half-maximal effective concentration (EC50) in data set [2] was no less than 3160 nM.
The compound `CCOc1ccc2[nH]c3c(c2c1)C[C@@]1(C)C(=O)N(CCBr)C(=O)N1[C@@H]3c1cccc(O)c1` (racemic) [Example 22, (3aSR,10RS)-2-(2-Bromo-ethyl)-6-ethoxy-10-(3-hydroxy-phenyl)-3a-methyl-3a,4,9,10-tetrahydro-2,9,10a-triaza-cyclopenta[b]fluorene-1,3-dione] registered a melting point of 250 to 252 °C. Besides, the 50% effective concentration (EC50) in data set [1] is 39.8 to 251 nM. In addition, the concentration for a half-maximal effect (EC50) in data set [2] is no less than 3160 nM. The EC50 in data set [3] was no less than 316 nM. In addition, the EC50 in data set [4] is no more than 39.8 nM.
Regarding `COCCOc1ccc2[nH]c3c(c2c1)C[C@@]1(C)C(=O)N(CCN(C)C)C(=O)N1[C@@H]3c1cccc(O)c1` (racemic) [Example 6, (3aSR,10RS)-2-(2-Dimethylamino-ethyl)-10-(3-hydroxy-phenyl)-6-(2-methoxy-ethoxy)-3a-methyl-3a,4,9,10-tetrahydro-2,9,10a-triaza-cyclopenta[b]fluorene-1,3-dione], the concentration for a half-maximal effect (EC50) in data set [1] is no more than 39.8 nM; in data set [2], no less than 3160 nM.
For `CN(C)CCCN1C(=O)N2[C@H](c3cccc(O)c3)c3[nH]c4ccc(Cl)cc4c3C[C@@]2(C)C1=O` (racemic) [Example 16, (3aSR,10RS)-6-Chloro-2-(3-dimethylamino-propyl)-10-(3-hydroxy-phenyl)-3a-methyl-3a,4,9,10-tetrahydro-2,9,10a-triaza-cyclopenta[b]fluorene-1,3-dione] the same measures were no more than 39.8 nM and no less than 3160 nM.
For `COc1ccc2[nH]c3c(c2c1)C[C@@]1(C)C(=O)N(CCNC2CCC2)C(=O)N1[C@@H]3c1cccc(O)c1` (racemic) [Example 50, (3aSR,10RS)-2-(2-Cyclobutylamino-ethyl)-10-(3-hydroxy-phenyl)-6-methoxy-3a-methyl-3a,4,9,10-tetrahydro-2,9,10a-triaza-cyclopenta[b]fluorene-1,3-dione], the results for the EC50 in data set [1] and in data set [2] were no more than 39.8 nM and no less than 3160 nM, respectively.
